# Key:
# Oxytocin receptor = biological target: T1, Oxytocin receptor (Homo sapiens, UniProt P30559); assay: Agonist activity at oxytocin receptor (unknown origin) expressed in CHO cells by IP-1 accumulation assay; format: functional, cell-based
# T1 sequence (P30559 whole entry): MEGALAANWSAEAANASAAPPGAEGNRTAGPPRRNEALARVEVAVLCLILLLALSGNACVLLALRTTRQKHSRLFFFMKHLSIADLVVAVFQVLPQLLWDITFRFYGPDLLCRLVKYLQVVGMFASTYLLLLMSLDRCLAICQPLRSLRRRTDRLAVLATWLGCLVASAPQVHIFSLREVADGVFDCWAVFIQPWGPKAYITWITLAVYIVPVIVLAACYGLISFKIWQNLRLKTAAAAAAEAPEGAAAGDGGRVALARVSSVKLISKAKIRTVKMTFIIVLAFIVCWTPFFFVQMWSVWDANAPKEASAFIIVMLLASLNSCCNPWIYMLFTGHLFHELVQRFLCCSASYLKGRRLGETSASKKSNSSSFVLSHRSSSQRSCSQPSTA
# Vasopressin V1a receptor = Vasopressin V1a receptor (Homo sapiens, UniProt P37288); assay: Antagonist activity at V1A receptor (unknown origin) by calcium signal assay; format: functional
# [1] = Selectivity ratio, IC50 for antagonist activity at V1A receptor (unknown origin) to EC50 for agonist activity at oxytocin receptor (unknown origin) expressed in CHO cells; format: cell-based
# Sequence of Vasopressin V1a receptor (P37288 whole entry): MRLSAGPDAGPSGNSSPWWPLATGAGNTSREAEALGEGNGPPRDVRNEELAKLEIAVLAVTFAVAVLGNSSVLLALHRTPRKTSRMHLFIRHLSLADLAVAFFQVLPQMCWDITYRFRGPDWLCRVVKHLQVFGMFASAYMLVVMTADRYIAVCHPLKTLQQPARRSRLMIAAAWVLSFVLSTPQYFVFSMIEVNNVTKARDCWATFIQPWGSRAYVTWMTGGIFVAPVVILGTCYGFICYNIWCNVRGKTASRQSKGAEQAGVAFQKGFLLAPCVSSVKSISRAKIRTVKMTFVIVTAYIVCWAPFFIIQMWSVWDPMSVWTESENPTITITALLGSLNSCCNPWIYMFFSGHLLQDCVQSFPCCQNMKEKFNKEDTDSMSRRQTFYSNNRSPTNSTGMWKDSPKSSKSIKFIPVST
Structure (SMILES),EC50 (Oxytocin receptor) [nM],IC50 (Vasopressin V1a receptor) [nM],Ratio IC50/EC50 [1]
Cc1cc(C(=O)N2Cc3cnn(C)c3Nc3ccccc32)ccc1CNC(=O)N1C[C@H](n2cc(CF)nn2)C[C@H]1C(=S)N(C)C,0.31,–,–
Cc1cc(C(=O)N2Cc3cnn(C)c3Nc3ccccc32)ccc1CNC(=O)N1C[C@H](n2cc(CCc3nnn[nH]3)nn2)C[C@H]1C(=S)N(C)C,1.95,> 10000,> 5000
Cc1cc(C(=O)N2Cc3cnn(C)c3Nc3ccccc32)ccc1CNC(=O)N1C[C@@H](n2cc(CO)nn2)C[C@H]1C(=S)N(C)C,0.14,700,5000
Cc1cc(C(=O)N2Cc3cnn(C)c3Nc3ccccc32)ccc1CNC(=O)N1C[C@H](n2cc(CC3NC(=O)NC3=O)nn2)C[C@H]1C(=S)N(C)C (some centres undefined),0.26,393,1510
Cc1cc(C(=O)N2Cc3cnn(C)c3Nc3ccccc32)ccc1CNC(=O)N1C[C@H](n2cc(COCCF)nn2)C[C@H]1C(=S)N(C)C,0.55,–,–
Cc1cc(C(=O)N2Cc3cnn(C)c3Nc3ccccc32)ccc1CNC(=O)N1C[C@H](n2cc(CO)nn2)C[C@H]1C(=S)N(C)C,0.15,966,6450
